#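 Grown in 96-well plates, cells were treated for 48 hours with each compound at five concentrations. Insufficient inhibition: endpoint recorded as highest concentration tested. Abbreviation: GI50, concentration required for 50% inhibition of growth. TGI: concentration producing complete growth inhibition.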
# Tests used:
# Assay in all cases: inhibition of tumour cell growth, NCI panel, 48 h
# 786-0 renal = system: 786-0 renal
# A498 renal = system: A498 renal
# A549 NSCLC = system: A549 NSCLC
# ACHN renal = system: ACHN renal
# BT-549 breast = system: BT-549 breast
# CAKI-1 renal = system: CAKI-1 renal
# CCRF-CEM leukemia = system: CCRF-CEM leukemia
# COLO 205 colon = system: COLO 205 colon
# DU-145 prostate = system: DU-145 prostate
# EKVX NSCLC = system: EKVX NSCLC
# HCC-2998 colon = system: HCC-2998 colon
# HCT-116 colon = system: HCT-116 colon
# HCT-15 colon = system: HCT-15 colon
# HL-60(TB) leukemia = system: HL-60(TB) leukemia
# HOP-62 NSCLC = system: HOP-62 NSCLC
# HOP-92 NSCLC = system: HOP-92 NSCLC
# HS 578T breast = system: HS 578T breast
# HT29 colon = system: HT29 colon
# K-562 leukemia = system: K-562 leukemia
# KM12 colon = system: KM12 colon
# LOX IMVI melanoma = system: LOX IMVI melanoma
# M14 melanoma = system: M14 melanoma
# MALME-3M melanoma = system: MALME-3M melanoma
# MCF7 breast = system: MCF7 breast
# MDA-MB-231 breast = system: MDA-MB-231 breast
# MDA-MB-435 = system: MDA-MB-435
# MOLT-4 leukemia = system: MOLT-4 leukemia
structure (smiles),measurement,setting,value
O=C(COc1cccc(/C=C2/Oc3ccccc3C2=O)c1)Nc1nccs1,GI50,786-0 renal,3.3 µM
same,TGI,786-0 renal,14.4 µM
same,GI50,A498 renal,20.8 µM
same,TGI,A498 renal,85.4 µM
same,GI50,A549 NSCLC,23.6 µM
same,TGI,A549 NSCLC,> 100 µM
same,GI50,ACHN renal,27.4 µM
same,TGI,ACHN renal,> 100 µM
same,GI50,BT-549 breast,14.9 µM
same,TGI,BT-549 breast,43.7 µM
same,GI50,CAKI-1 renal,15.9 µM
same,TGI,CAKI-1 renal,34.4 µM
same,GI50,CCRF-CEM leukemia,1.89 µM
same,TGI,CCRF-CEM leukemia,3.73 µM
same,GI50,COLO 205 colon,24.4 µM
same,TGI,COLO 205 colon,97.9 µM
same,GI50,DU-145 prostate,27.8 µM
same,TGI,DU-145 prostate,> 100 µM
same,GI50,EKVX NSCLC,31.9 µM
same,TGI,EKVX NSCLC,> 100 µM
same,GI50,HCC-2998 colon,29 µM
same,TGI,HCC-2998 colon,68.9 µM
same,GI50,HCT-116 colon,22.8 µM
same,TGI,HCT-116 colon,> 100 µM
same,GI50,HCT-15 colon,28.3 µM
same,TGI,HCT-15 colon,> 100 µM
same,GI50,HL-60(TB) leukemia,2.86 µM
same,TGI,HL-60(TB) leukemia,8.58 µM
same,GI50,HOP-62 NSCLC,38.3 µM
same,TGI,HOP-62 NSCLC,> 100 µM
same,GI50,HOP-92 NSCLC,10.1 µM
same,TGI,HOP-92 NSCLC,30.2 µM
same,GI50,HS 578T breast,24.4 µM
same,TGI,HS 578T breast,> 100 µM
same,GI50,HT29 colon,32.7 µM
same,TGI,HT29 colon,> 100 µM
same,GI50,K-562 leukemia,16.4 µM
same,TGI,K-562 leukemia,53.7 µM
same,GI50,KM12 colon,10.5 µM
same,TGI,KM12 colon,32.9 µM
same,GI50,LOX IMVI melanoma,2.78 µM
same,TGI,LOX IMVI melanoma,10.2 µM
same,GI50,M14 melanoma,30.5 µM
same,TGI,M14 melanoma,> 100 µM
same,GI50,MALME-3M melanoma,21.2 µM
same,TGI,MALME-3M melanoma,50.9 µM
same,GI50,MCF7 breast,14.8 µM
same,TGI,MCF7 breast,> 100 µM
same,GI50,MDA-MB-231 breast,7.95 µM
same,TGI,MDA-MB-231 breast,29.8 µM
same,GI50,MDA-MB-435,21.2 µM
same,TGI,MDA-MB-435,68 µM
same,GI50,MOLT-4 leukemia,13 µM

# Source: PubChem BioAssay (NCI)
